Measured values published in BindingDB's records for doi:10.1021/jm030121k (Boehringer Ingelheim Pharmaceuticals, 2003).

Target: Mitogen-activated protein kinase 14 (Mus musculus, UniProt P47811)
Assay: UV-Thermal Melt
Method: UV thermal melt experiments were carried out in a quartz cuvette loaded with sample containing enzyme and each test compound using a spectrophotometer. For each measurement, absorbance data at 230 nm was collected as the temperature was scanned from 25 to 80 C at a ramp rate of 0.2 C /min. The melting temperature (Tm) for each sample was calculated as the maximum deflection point of the first derivative of the melting transition.

Mitogen-activated protein kinase 14, sequence (P47811 whole entry): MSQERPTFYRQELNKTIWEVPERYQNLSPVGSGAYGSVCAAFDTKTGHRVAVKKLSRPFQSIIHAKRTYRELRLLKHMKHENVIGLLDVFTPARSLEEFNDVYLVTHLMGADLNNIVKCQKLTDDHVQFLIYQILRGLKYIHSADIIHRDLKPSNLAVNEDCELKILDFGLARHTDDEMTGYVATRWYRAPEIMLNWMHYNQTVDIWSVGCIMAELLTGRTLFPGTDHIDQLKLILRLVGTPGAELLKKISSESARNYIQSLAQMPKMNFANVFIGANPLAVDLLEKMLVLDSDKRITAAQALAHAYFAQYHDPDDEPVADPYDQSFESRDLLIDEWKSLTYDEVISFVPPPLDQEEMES

For `Cc1ccc(-n2nc(C(C)(C)C)cc2NC(=O)Nc2cccc3ccccc23)cc1` [BIRB-796 Analog 4], the Kd was 11 nM.
